Laboratory results published in ChEMBL document CHEMBL5649166, “RIP3 induces apoptosis independent of pronecrotic kinase activity” (Mol Cell, 2014).

Columns and labels:
[1] = target: Serine/threonine-protein kinase PAK 6 (Homo sapiens) (UniProt Q9NQU5); assay: Inhibition of human PAK6 using RRRLSFAEPG as substrate at 1 uM in presence of 32P-ATP by Hotspot assay relative to control; values are per cent of control
[2] = target: Cyclin-dependent kinase 1/cyclin B1 (Homo sapiens) (UniProt P06493+P14635); assay: Inhibition of human CDK1/cyclin B using RB Protein as substrate at 1 uM in presence of 32P-ATP by Hotspot assay relative to control; values are per cent of control
[3] = target: Serine/threonine-protein kinase 26 (Homo sapiens) (UniProt Q9P289); assay: Inhibition of human MST4 using myelin basic protein as substrate at 1 uM in presence of 32P-ATP by Hotspot assay relative to control; values are per cent of control
[4] = target: Cyclin-dependent kinase 5/CDK5 activator 1 (Homo sapiens) (UniProt Q00535+Q15078); assay: Inhibition of human CDK5/p25 using RB Protein as substrate at 1 uM in presence of 32P-ATP by Hotspot assay relative to control; values are per cent of control
[5] = target: Mitogen-activated protein kinase kinase kinase kinase 5 (Homo sapiens) (UniProt Q9Y4K4); assay: Inhibition of human KHS/MAP4K5 using myelin basic protein as substrate at 1 uM in presence of 32P-ATP by Hotspot assay relative to control; values are per cent of control
[6] = target: T1, Dual specificity protein kinase TTK (Homo sapiens) (UniProt P33981); assay: Inhibition of human TTK using at 1 uM in presence of 32P-ATP by Hotspot assay relative to control; values are per cent of control
T1 sequence (whole entry): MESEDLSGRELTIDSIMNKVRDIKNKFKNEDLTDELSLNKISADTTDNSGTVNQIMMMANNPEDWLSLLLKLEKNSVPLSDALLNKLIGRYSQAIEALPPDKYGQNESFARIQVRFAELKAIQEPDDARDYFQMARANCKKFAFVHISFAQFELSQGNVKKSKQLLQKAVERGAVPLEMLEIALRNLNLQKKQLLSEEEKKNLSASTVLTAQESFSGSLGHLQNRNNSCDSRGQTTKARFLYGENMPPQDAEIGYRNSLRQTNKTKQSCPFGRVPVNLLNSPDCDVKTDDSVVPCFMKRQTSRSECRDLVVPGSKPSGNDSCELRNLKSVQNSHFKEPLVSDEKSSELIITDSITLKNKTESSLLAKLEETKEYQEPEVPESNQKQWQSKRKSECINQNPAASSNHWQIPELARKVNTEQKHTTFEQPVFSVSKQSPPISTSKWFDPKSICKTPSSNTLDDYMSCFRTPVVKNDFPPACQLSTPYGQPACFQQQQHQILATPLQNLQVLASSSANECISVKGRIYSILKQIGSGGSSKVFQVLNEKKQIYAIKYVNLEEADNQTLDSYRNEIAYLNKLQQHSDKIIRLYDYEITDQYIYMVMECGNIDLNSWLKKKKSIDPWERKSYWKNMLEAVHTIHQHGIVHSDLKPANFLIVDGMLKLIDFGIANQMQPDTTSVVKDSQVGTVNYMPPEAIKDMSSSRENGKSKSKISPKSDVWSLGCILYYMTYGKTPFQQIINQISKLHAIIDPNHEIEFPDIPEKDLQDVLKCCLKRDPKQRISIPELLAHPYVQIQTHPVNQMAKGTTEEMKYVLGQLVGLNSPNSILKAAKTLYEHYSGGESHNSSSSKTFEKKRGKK

[7] = target: Receptor-type tyrosine-protein kinase FLT3 (Homo sapiens) (UniProt P36888); assay: Inhibition of human FLT3 using EAIYAAPFAKKK as substrate at 1 uM in presence of 32P-ATP by Hotspot assay relative to control; values are per cent of control
[8] = target: Serine/threonine-protein kinase PLK3 (Homo sapiens) (UniProt Q9H4B4); assay: Residual activity of human PLK3 using casein as substrate at 1 uM in presence of 32P-ATP by Hotspot assay relative to control
MEF = assay: Induction of apoptosis in RIP3-/- MEF cells transfected with human RIP3mutRHIM incubated for 18 hrs by Cell Titer-Glo luminescent cell viability assay; type: toxicity, cell-based; conditions: mouse
[9] = target: CDK9/Cyclin K (Homo sapiens) (UniProt P50750+O75909); assay: Inhibition of human CDK9/cyclin K using KTFCGTPEYLAPEVRREPRILSEEEQEMFRDFDYIADWC as substrate at 1 uM in presence of 32P-ATP by Hotspot assay relative to control; values are per cent of control
[10] = target: T2, Mitogen-activated protein kinase kinase kinase kinase 2 (Homo sapiens) (UniProt Q12851); assay: Inhibition of human GCK/MAP4K2 using myelin basic protein as substrate at 1 uM in presence of 32P-ATP by Hotspot assay relative to control; values are per cent of control
T2 sequence (whole entry): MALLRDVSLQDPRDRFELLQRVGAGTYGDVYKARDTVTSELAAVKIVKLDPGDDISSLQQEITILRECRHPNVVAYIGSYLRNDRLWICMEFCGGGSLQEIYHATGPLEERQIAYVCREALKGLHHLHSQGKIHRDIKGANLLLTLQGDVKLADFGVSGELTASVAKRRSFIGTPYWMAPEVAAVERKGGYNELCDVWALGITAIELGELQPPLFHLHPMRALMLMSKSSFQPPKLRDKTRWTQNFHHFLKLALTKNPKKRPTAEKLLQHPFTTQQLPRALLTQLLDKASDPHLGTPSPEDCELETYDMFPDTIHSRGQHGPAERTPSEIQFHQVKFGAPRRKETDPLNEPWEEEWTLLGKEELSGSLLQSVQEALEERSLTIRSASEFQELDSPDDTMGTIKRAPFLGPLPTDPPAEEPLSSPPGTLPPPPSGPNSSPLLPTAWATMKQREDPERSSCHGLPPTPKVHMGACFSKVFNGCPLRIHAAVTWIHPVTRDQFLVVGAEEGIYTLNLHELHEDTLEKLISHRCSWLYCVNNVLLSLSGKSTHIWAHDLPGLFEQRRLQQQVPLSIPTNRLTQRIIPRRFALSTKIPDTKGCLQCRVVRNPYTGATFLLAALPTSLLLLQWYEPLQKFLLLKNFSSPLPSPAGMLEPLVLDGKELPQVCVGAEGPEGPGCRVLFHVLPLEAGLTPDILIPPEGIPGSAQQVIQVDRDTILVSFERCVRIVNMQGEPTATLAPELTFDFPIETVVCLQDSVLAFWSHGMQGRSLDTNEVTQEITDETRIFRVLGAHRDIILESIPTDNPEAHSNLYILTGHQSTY

Sequence of Serine/threonine-protein kinase PLK3 (Homo sapiens) (Q9H4B4 whole entry, looked up): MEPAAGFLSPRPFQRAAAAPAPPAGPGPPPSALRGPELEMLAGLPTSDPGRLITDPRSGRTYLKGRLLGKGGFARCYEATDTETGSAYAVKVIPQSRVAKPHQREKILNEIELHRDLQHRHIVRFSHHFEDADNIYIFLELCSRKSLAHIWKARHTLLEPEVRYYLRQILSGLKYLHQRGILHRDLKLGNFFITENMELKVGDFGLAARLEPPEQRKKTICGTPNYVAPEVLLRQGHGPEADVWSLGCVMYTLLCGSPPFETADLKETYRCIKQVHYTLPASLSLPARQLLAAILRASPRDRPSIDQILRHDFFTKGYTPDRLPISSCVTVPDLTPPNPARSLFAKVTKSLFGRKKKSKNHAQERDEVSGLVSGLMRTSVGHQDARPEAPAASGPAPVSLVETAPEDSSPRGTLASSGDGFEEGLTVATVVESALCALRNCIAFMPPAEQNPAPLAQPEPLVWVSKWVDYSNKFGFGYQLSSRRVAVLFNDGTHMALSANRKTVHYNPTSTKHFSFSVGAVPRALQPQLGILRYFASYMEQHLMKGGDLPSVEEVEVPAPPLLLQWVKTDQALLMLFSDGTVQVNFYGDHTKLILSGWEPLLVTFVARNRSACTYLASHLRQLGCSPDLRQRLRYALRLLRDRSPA
Sequence of Cyclin-dependent kinase 1/cyclin B1 (Homo sapiens) (P06493 whole entry, looked up): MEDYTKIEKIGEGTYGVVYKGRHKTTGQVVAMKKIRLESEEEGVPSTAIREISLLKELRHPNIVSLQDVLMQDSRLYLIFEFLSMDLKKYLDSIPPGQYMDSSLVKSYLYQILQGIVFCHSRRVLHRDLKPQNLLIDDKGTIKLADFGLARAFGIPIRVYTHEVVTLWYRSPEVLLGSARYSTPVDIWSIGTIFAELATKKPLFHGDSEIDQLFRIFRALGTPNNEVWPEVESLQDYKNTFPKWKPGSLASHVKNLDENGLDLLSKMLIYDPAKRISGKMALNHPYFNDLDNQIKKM
Sequence of Cyclin-dependent kinase 1/cyclin B1 (Homo sapiens) (P14635 whole entry, looked up): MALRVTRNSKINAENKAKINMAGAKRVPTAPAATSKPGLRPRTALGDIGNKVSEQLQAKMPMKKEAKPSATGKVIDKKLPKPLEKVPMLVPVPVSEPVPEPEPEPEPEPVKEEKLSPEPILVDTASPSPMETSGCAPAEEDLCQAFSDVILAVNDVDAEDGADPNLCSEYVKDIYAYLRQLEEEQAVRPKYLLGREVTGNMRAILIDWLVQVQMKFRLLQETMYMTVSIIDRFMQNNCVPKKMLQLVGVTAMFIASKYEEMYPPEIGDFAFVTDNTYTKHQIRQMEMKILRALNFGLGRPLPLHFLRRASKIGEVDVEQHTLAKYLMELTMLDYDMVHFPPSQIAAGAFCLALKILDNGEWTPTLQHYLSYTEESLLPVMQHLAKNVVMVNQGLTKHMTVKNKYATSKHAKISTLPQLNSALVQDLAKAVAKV
Sequence of Mitogen-activated protein kinase kinase kinase kinase 5 (Homo sapiens) (Q9Y4K4 whole entry, looked up): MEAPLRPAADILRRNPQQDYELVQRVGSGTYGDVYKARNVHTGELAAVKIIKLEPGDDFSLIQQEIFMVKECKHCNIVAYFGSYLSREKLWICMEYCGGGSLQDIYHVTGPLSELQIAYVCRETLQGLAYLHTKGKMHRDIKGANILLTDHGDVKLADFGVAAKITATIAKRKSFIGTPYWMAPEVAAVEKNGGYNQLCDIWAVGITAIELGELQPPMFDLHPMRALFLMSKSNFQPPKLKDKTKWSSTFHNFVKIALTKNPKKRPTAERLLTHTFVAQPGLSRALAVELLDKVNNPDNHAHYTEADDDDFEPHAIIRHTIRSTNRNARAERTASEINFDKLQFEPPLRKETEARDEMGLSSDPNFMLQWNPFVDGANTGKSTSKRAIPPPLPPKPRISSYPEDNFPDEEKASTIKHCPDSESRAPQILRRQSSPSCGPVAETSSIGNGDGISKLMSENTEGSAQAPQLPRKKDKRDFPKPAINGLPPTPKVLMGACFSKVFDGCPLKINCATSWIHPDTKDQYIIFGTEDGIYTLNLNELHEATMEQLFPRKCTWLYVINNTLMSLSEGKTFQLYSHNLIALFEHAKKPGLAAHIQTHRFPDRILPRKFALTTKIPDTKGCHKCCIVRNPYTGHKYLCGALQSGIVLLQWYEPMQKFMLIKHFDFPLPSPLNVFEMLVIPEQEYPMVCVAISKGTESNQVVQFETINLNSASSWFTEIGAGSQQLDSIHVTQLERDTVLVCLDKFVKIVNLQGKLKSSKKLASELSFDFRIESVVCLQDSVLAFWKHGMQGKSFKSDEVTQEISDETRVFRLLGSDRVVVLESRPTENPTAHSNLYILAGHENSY
Sequence of Cyclin-dependent kinase 5/CDK5 activator 1 (Homo sapiens) (Q00535 whole entry): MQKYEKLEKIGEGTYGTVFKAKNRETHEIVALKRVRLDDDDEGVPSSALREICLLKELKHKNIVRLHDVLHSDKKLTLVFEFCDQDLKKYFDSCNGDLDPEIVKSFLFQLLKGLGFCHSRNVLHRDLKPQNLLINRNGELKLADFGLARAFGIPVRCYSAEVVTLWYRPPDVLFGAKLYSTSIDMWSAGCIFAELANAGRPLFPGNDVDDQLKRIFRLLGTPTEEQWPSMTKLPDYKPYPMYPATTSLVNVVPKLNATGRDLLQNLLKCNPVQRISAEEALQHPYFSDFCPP
Sequence of Cyclin-dependent kinase 5/CDK5 activator 1 (Homo sapiens) (Q15078 99-307 partner limits assumed): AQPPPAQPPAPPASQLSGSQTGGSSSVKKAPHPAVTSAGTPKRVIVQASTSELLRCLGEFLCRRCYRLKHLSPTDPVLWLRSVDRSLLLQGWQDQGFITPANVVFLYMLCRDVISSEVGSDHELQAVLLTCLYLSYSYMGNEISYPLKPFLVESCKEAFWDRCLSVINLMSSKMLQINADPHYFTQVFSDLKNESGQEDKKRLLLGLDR
Sequence of Serine/threonine-protein kinase 26 (Homo sapiens) (Q9P289 2-416 limits assumed): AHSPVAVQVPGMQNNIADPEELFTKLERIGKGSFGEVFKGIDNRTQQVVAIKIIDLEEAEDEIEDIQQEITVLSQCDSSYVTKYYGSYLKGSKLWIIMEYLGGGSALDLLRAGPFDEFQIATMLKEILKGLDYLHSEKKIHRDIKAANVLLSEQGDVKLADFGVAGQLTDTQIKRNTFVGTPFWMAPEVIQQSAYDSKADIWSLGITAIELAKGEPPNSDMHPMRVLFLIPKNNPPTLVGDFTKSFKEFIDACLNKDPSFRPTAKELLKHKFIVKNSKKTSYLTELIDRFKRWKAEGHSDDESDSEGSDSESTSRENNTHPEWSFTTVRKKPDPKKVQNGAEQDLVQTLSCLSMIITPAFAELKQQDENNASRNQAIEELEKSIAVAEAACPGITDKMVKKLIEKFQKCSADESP
Sequence of Receptor-type tyrosine-protein kinase FLT3 (Homo sapiens) (P36888 whole entry): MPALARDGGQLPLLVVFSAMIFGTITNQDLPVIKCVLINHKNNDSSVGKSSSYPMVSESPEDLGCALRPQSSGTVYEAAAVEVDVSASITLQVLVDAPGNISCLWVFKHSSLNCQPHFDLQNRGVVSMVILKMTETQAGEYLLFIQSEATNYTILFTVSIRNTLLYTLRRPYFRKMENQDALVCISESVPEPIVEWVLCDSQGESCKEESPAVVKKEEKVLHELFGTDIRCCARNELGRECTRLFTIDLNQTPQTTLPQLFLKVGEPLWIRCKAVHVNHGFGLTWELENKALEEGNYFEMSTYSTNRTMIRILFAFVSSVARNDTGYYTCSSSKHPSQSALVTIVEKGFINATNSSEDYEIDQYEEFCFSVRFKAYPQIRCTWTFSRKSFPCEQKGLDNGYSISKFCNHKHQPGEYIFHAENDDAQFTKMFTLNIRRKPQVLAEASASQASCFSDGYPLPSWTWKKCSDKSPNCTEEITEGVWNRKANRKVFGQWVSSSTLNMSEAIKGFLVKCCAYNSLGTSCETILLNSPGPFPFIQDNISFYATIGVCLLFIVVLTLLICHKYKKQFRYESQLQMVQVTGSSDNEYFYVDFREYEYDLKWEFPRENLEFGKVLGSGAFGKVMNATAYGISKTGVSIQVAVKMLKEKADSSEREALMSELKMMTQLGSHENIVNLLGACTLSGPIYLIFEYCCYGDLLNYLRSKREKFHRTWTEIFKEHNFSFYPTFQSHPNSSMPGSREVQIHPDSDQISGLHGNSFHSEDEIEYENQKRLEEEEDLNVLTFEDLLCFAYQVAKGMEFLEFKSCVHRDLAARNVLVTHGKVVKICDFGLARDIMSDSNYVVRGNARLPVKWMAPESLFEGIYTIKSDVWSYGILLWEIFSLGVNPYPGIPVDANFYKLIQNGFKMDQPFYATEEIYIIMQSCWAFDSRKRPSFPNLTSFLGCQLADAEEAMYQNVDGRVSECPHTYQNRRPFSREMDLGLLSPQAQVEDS
Sequence of Serine/threonine-protein kinase PAK 6 (Homo sapiens) (Q9NQU5 whole entry, looked up): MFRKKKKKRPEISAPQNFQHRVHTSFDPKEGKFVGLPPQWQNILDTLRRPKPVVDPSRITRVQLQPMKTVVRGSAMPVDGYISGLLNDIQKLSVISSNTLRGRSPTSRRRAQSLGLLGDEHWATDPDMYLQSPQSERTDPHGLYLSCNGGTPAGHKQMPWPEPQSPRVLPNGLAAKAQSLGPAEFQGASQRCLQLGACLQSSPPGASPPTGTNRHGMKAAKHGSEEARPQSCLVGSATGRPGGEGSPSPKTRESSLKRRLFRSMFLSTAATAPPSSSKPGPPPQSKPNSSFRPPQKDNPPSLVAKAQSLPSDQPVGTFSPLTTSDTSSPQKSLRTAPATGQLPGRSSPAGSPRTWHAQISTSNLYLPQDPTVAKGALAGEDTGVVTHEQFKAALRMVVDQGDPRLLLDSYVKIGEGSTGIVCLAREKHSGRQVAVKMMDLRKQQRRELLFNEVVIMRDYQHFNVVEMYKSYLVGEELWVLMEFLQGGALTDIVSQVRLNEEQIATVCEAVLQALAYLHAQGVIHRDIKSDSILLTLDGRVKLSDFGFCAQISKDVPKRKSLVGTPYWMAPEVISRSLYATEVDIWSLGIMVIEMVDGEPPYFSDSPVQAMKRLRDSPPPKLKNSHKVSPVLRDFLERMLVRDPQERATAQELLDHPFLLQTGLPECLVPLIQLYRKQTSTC

Row | SMILES | residual activity [1] [%] | residual activity [2] [%] | residual activity [3] [%] | residual activity [4] [%] | residual activity [5] [%] | residual activity [6] [%] | residual activity [7] [%] | residual activity [8] [%] | Activity (MEF) | residual activity [9] [%] | residual activity [10] [%]
1 | CC(C)S(=O)(=O)c1ccc2nccc(Nc3ccc4scnc4c3)c2c1 | 98.5 | 101 | 95.9 | 99.9 | 109 | 100 | 87.9 | 102 | Non-Toxic | 94.5 | 88.3
2 | Cc1cc(-c2cnc(N)c3c(-c4ccc5scnc5c4)csc23)n(C)n1 | 106 | 95 | 93.5 | 96.7 | 64.3 | 101 | 48 | 91.7 | Non-Toxic | 104 | 68.1
3 | CNC(=O)c1ccc2c(c1)ncn2-c1ccc(CC(=O)OC(C)(C)C)cc1 | 89.9 | 98.9 | 97.5 | 93.1 | 89 | 91 | 16 | 106 | Non-Toxic | 99.6 | 91.8
